Data set [1] can be described thus: Intestinal distribution by MALDI imaging in mice. To be noted: 60 min after oral pro-drug. Type of data set: in vivo. On the procedure: (§1) One animal was euthanised at 0.25, 0.5, 1, and 4 hr respectively and 2.5–3 cm sections of the intestine (duodenum, jejunum, ileum, caecum, and colon) were collected and frozen at –80 °C. For quantitative LCMS analysis of intestine homogenate, samples were thawed at ambient temperature, mixed with water (1:1) and homogenised by turrax (10 sec). Subsequently, 20 µL of homogenate were mixed with 200 µl of ACN: MeOH (80:20) and filtered using 0.2 µm filter plate (Whatman). LCMS analysis was performed as described in previous section. For MALDI imaging, 50 mm of the central part of each intestinal section were cut and mounted in a sample disc on dry ice with a solution of 1% methylcellulose (Sigma Aldrich, UK). Next, tissue sections of 12 µm (sagital sections) were obtained using a cryostat (Leica CM3600; Leica Microsystems Inc, Wetzlar, Germany) at –20 °C and collected in conductive-coated slides for MALDI Imaging (Bruker Daltonic). After the ‘MALDI’ section was obtained a consecutive section for histology was taken. Prior to matrix coating, samples for MALDI were optical scanned in a PathScanner. The matrix deposition was conducted in a sprayer ImagePrep System (Bruker Daltonic) which uses vibrational vaporisation technology. As matrix solution α-CHCA (α-Cyano-4-hydroxycinnamic acid (Sigma Aldrich) dissolved in 70:30 methanol/water (v/v) containing 0.2% TFA at 7 mg/mL was used. MALDI MSI data were obtained using a Bruker UltrafleXtream MALDI TOF/TOF (Bruker Daltonic, Germany)).
Both compounds were analysed in positive mode using a LIFT method. For Tebipenem, parent compound was 384.32 and the detection mass window between m/z 0–400. 298.164 were the most intensive fragment. […] We used a laser shut at 85% power with a 50 μm step size, 100 times at raster spot in random wak mode. FlexImaging 4.1(bruker Daltoninc, Germany) were used for the data visualisation. […]
MALDI Imaging is not a quantitative technique, therefore, the colour scale of images is relative to the maximum intensity (100 corresponds with the maximal signa in each slide). […]

The test system of another data set is Shigella (Sf2457T). In words: Checkerboard synergy assay (FIC), laboratory isolate. Format: cell-based, Shigella flexneri. On the procedure: Before initiating drug combination assays, the MIC values for both compounds were determined against Shigella (Sf2457T), Salmonella (St14028), and E. coli (EcDH5a) isolates. […] 20 μM moxifloxacin was used as negative control (100% bacterial growth inhibition) in one column and DMSO as positive control (100% bacterial growth). A total of 25 µl of 1 × 10^6 CFU/mL bacterial culture was added to each well of a 384-well plate (μClear; Greiner Bio‐One). Plates were incubated overnight at 37 °C. Next, 10 µl of resazurin were added and plates were incubated at room temperature for 3 hr. Bacterial growth inhibition was measured by fluorescence in a Envision plate reader (PerkinElmer). All assays were performed in duplicate. Combination studies with clinical isolates were performed in 96-well plates (Greiner) adding 200 μl of 1 × 10^6 CFU/mL bacterial culture and following the same checkboard titration method as described above. The range of final working concentrations of each antimicrobial was adjusted based on the MIC of each selected organism.
MICs were determined for drug A and drug B alone and in combination. […] The sum of FIC was expressed using the following equation: FIC = (MIC of drug A in combination / MIC of drug A alone) + (MIC of drug B in combination / MIC of drug B alone) ([Le Minh et al., 2015]; [Petersen et al., 2006]; [Hall et al., 1983]; [European Committee for Antimicrobial Susceptibility Testing (EUCAST) of the European Society of Clinical Microbiology and Infectious Dieases (ESCMID), 2000]).

For another data set, the system named is S. sonnei 02–1181. In words: Solid medium test at 10 µM and dose-response MIC against MDR clinical isolate. Format: cell-based, Shigella sonnei. On the procedure: (§2) The confirmed hit list was narrowed by applying the following filters: a 30% cut-off value, absence of undesirable structural features (e.g. electrophiles, peroxides, and Michael acceptors) and reduced physicochemical risk (maximum five aromatic rings and PFI <8)([Leeson and Young, 2015]). […] Briefly, the selected bacteria were cultured on the Luria-Bertani agar overnight at 37 °C (Campylobacter isolates were grown in 2.5% Laked Horse Blood cation-adjusted Mueller Hinton medium (CAMHB, Sigma Aldrich) and incubated in microaerophilic conditions (10% CO2, 5% O2 and 85% N2) at 42 °C); colonies were added to sterile PBS to form 0.5 McFarland solutions. All chemical testing was performed at an initial concentration of 10 μM. Bacterial suspensions were evenly spread on Mueller-Hinton agar by sterile cotton swabs (Medical Wire – MWE). […] Plates were incubated overnight at 37 °C. The activity of the chemical was recorded as being active (yes) or non-active (no) for each of the tested chemicals.
(§3) MICs were evaluated using the micro dilution assay in Müller Hinton broth using 1 mM chemical stock solutions, and a final concentration of 5 × 10^5 CFU/mL bacteria. Twofold serial dilutions were prepared in 96-well plates at concentration ranging from 1 μM to 7.8 nM. 100 μL bacteria were added and incubated at 37 °C overnight; 10 μl of each solution was dropped onto Luria-Bertani agar and incubated overnight at 37 °C for the detection of bacterial growth. Results were interpreted as minimal concentration necessary to inhibit growth.

Data set [2] is described as follows: Intestinal distribution by quantitative LC-MS in mice. Type of data set: in vivo. To be noted: for peak drug concentration: mice, oral 50 mg/kg Tebipenem pivoxil. On the procedure:
as §1

A further data set is described as follows: in vivo. To be noted: female, C57, mouse; for bioavailability: mice, n = 3.
For a further data set, the system named is S. flexneri EG478. Nature of the data set: Solid medium test at 10 µM and dose-response MIC against MDR clinical isolate. Type of data set: cell-based, Shigella flexneri. On the procedure: as §2, §3
The mark [3] stands for this setting: in combination with LpxC inhibitor PF-5081090.
The mark [4] stands for this setting: female, C57, mouse, duodenum and jejunum, po, 50 mg/kg, read-out: concentration in tissue.

Where only a bound is given, the exact number is not on record here.

`C[C@@H](O)[C@H]1C(=O)N2C(C(=O)O)=C(SC3CN(C4=NCCS4)C3)[C@H](C)[C@H]12` [Tebipenem]: the “MALDI detection in the intestinal lumen” value in data set [1] is “could be detected in the lumen and enterocytes throughout the gut”. For the same compound, the “interaction (FIC index)” value with Shigella (Sf2457T) (setting [3]) was “partial synergy”; with Shigella (Sf2457T) (in combination with azithromycin) it was “partial synergy”; with Shigella (Sf2457T) (in combination with ceftriaxone) it was “indifference or partial synergy”; in the data set with Shigella (Sf2457T) (in combination with ciprofloxacin), “indifference or partial synergy”; with Shigella (Sf2457T) (in combination with mecillinam), “indifference or partial synergy”. The “reduction of the MIC against Tebipenem” value in the data set with Shigella (Sf2457T) (setting [3]) is on record as over 10 fold. Further, the bactericidal activity result in the data set on S. sonnei 02–1181 and with S. flexneri EG478 (MDR clinical isolate S. flexneri EG478) was “greatest bactericidal activity” each time. In addition, the concentration at 15 min in data set [2] (setting [4]) was over 300000 ng/g. Moreover, the concentration at 240 min in data set [2] (setting [4]) was over 400 ng/g. In addition, the peak drug concentration is 11 µg/g tissue in data set [2] (caecum, after 60 min); 6 µg/g tissue in data set [2] (colon, after 60 min); 15 µg/g tissue in data set [2] (ileum, after 30 min). For the same compound, the time to peak (Tmax) in “in vivo” is at most 60 min; in the data set “in vivo” (sc, 39 mg/kg), 15 min. Further, the exposure AUC(0-t) stood at 80000 ng·h/mL in the data set “in vivo” (39 mg/kg); 7500 ± 1500 ng·h/mL in the data set “in vivo” (po, 39 mg/kg); 80400 ± 7700 ng·h/mL in “in vivo” (sc, 39 mg/kg). Further, the Cmax worked out at 3700 ± 900 ng/mL in the data set “in vivo” (po, 39 mg/kg) and 71000 ± 15300 ng/mL in the data set “in vivo” (sc, 39 mg/kg). The bioavailability in the data set “in vivo” (po, 39 mg/kg, Tebipenem PO 39 mg/kg) was about 5%; in the data set “in vivo” (sc, 39 mg/kg, Tebipenem SQ 39 mg/kg) it was 44 ± 4%. Also, the MIC range in the data set on S. flexneri EG478 (range over S. flexneri EG478 and S. sonnei 02-1181) fell in the range of 0.08 to 0.15 µg/mL.

Usually Tmax stands for the time from dosing to the highest level. One may read the AUC(0-t) as the area under the concentration-time curve up to a stated or last time point. A higher AUC(0-t) goes with more exposure. Broadly, the Cmax is the highest concentration seen after dosing. For orientation: bioavailability means dose-corrected exposure relative to a reference, in per cent. The low end stands for little systemic uptake, the high end for much systemic uptake.

(Values after article PMC8959600 (eLife, 2022).)
